Measured values published in patent US12202840B2, “Compounds for the treatment or alleviation of disorders associated with Tau aggregates” (AC Immune SA, priority 2018, dated 2025).

Key:
Format in all cases: in vivo
[1] = system: rTg4510 mice; assay: Morris Water Maze behavioral test, study of Example 2; settings: once daily by gavage, 7 and 20 mg/kg, statistical significance at 20 mg/kg, FIG. 4
Protocol: Double transgenic rTg4510 mice are an aggressive Tauopathy model expressing the full-length human Tau carrying the P301L mutation (Tau4R0N-P301L) under the control of the tetracycline-inducible CaMKII promoter (Ramsden et al., 2005). Wild-type animals and single transgenic mice expressing only the tetracycline-controlled transactivator (tTA) were used as genotype controls. Mice were treated and tested. The study comprised 4 treatment groups (n=15 female mice/group) with the following group distribution (see Table 6). Compound of the invention or vehicle control were administered once daily by gavage for 12 weeks starting at the age of 5.5 weeks. The Morris Water Maze (MWM) behavioral test was performed after 12.5 weeks of treatment over 5 consecutive days. During MWM testing daily dosing was continued. Behavioral testing (MWM) and biochemical quantification of sarkosyl-insoluble Tau were performed on all mice (n=15 mice/group). […]
The MWM was performed in a circular tank, measuring 48″ in diameter. […] Trials were video recorded and analyzed by a computer program (WaterMaze; Actimetrics, Wilmette, Ill.). […] Percent crossing in each quadrant (target, left and right adjacent, and opposite) was calculated for probe trials. Data were analyzed by 2-way ANOVA followed by post-hoc comparisons and shown statistics refers to differences compared to vehicle treated rTg4510 mice.

[2] = molecular target: T1, sarkosyl-insoluble Tau (Homo sapiens, UniProt P10636, P618L); assay: Sarkosyl-insoluble Tau quantification in cortex, study of Example 2; settings: rTg4510 mice cortex, once daily by gavage, 7 and 20 mg/kg; statistical significance at 20 mg/kg; FIG. 5
T1 construct: expressing the full-length human Tau carrying the P301L mutation (Tau4R0N-P301L); from tissue; host or cells: brain (cortex) of double transgenic rTg4510 mice
T1 sequence (P10636 1-383 isoform P10636-6 P243L): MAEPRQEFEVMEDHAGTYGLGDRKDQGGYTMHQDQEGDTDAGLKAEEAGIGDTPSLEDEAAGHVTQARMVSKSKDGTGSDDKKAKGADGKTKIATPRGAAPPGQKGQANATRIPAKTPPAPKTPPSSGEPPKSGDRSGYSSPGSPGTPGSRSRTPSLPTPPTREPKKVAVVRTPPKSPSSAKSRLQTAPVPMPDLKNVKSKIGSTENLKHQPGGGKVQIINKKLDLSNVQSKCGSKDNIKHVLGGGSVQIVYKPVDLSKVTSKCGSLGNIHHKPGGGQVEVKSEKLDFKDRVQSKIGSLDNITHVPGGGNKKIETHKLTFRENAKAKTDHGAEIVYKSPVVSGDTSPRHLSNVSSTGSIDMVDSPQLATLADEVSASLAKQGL
Protocol: (§1) Double transgenic rTg4510 mice are an aggressive Tauopathy model expressing the full-length human Tau carrying the P301L mutation (Tau4R0N-P301L) under the control of the tetracycline-inducible CaMKII promoter (Ramsden et al., 2005). Wild-type animals and single transgenic mice expressing only the tetracycline-controlled transactivator (tTA) were used as genotype controls. Mice were treated and tested. The study comprised 4 treatment groups (n=15 female mice/group) with the following group distribution (see Table 6). Compound of the invention or vehicle control were administered once daily by gavage for 12 weeks starting at the age of 5.5 weeks. The Morris Water Maze (MWM) behavioral test was performed after 12.5 weeks of treatment over 5 consecutive days. During MWM testing daily dosing was continued. Behavioral testing (MWM) and biochemical quantification of sarkosyl-insoluble Tau were performed on all mice (n=15 mice/group). Measurement of cortical atrophy and histology for Iba1 were performed on 10 mice/group.
After behavioral testing, mice were deeply anesthetized by standard injectable anesthesia and transcardially perfused with cold PBS. Brains were then removed and hemi-sagitally hemisected. […] The membranes were finally scanned using LiCor scanner (Odyssey Infrared Imager) and quantified using the LiCor software Image Studio Lite Version 5.2. […]

[3] = system: Iba1 positive microglia; assay: Iba1 immunoreactivity (microgliosis), study of Example 2; settings: rTg4510 mice, once daily by gavage, 20 mg/kg; FIG. 6B
Protocol: as §1
One section per animal from layer 6 was also used to quantify the Iba1 immunoreactivity. […] Sections were imaged using a digital slide scanner (Pannoramic 250 BF Flash+FL, 3D Histech Ltd.) and quantified using the image visualization software CaseViewer and the image analysis software module HistoQuant (3D Histech Ltd.).

sarkosyl insoluble Tau [2]: dose-dependent decrease
SMILES: CN(C)[C@@H]1CCc2c(c3ccc(Nc4ccc5sc(N6CCOCC6)nc5c4)nc3n2C)C1 [Example 2]
percentage of platform crossings in the target compared to the opposite quadrant (MWM probe trial) [1]: dose-dependent increase
Iba1 immunoreactive area [3]: significant decrease
